Tests used:
[1] = molecular target: T1, TNF-α (Homo sapiens, UniProt P01375); experiment: TNFR2: TNF-α [biotinylated] inhibitor screening assay; format: binding; conditions: for IC50: mean ± SD of three experiments
T1 construct: purchased BPS Bioscience 79756
Protocol: The assay was performed in triplicates using TNFR2: TNF-α [biotinylated] […] First, TNFR2 is coated on a 96-well plate. Next, biotinylated TNF-α is incubated with TNFR2 on the plate. Finally, the plate was treated with streptavidin-HRP followed by addition of an HRP substrate to produce chemiluminescence, which can be measured using a chemiluminescence reader.

[2] = molecular target: T2, COX-1 (Ovis aries, UniProt P05979); experiment: Cyclooxygenase COX-1 inhibition assay (Cayman COX inhibitor screening kit, EIA)
T2 sequence (P05979 25-600): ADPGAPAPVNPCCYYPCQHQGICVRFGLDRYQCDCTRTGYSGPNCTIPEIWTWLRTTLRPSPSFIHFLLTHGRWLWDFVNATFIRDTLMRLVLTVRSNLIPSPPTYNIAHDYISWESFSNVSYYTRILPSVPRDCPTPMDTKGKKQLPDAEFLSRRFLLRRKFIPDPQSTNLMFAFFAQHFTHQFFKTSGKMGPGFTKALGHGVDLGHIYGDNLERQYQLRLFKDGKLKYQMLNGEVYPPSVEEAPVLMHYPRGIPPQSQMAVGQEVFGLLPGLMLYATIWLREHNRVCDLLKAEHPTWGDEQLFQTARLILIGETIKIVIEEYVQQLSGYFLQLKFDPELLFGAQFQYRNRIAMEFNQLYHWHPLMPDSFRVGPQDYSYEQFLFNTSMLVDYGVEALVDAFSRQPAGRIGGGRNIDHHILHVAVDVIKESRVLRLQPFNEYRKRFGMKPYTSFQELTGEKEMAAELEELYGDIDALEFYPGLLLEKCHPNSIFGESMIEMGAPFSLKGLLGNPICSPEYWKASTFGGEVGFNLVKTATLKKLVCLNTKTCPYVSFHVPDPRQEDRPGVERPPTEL
Protocol: (§1) Tested compounds were dissolved in DMSO. […] The COX inhibitor screening assay depends on direct measurement of the amount of PG2α produced in the COX reaction. […] Enzyme catalysis was terminated by addition of 50 µl 1 M HCl and 100 µl of the saturated stannous chloride solution. The PGs are quantified by enzyme immunoassay (EIA) at 410 nm.
(§2) Thus, the newly synthesised compounds were tested for their anti-inflammatory activity against isozymes COX-1 and COX-2, which were determined by the COX-catalysed transformation of AA into PGH2 that was reduced to PGF2α and detected by the EIA[53], as shown in Table 1.

[3] = molecular target: T3, COX-2 (Homo sapiens, UniProt P35354); experiment: Cyclooxygenase COX-2 inhibition assay (Cayman COX inhibitor screening kit, EIA); conditions: for Selectivity indexes (SI): SI = IC50 COX-1/COX-2 ratios; for COX-2 inhibition, in words (SAR discussion): qualitative statement
T3 sequence (P35354 18-604): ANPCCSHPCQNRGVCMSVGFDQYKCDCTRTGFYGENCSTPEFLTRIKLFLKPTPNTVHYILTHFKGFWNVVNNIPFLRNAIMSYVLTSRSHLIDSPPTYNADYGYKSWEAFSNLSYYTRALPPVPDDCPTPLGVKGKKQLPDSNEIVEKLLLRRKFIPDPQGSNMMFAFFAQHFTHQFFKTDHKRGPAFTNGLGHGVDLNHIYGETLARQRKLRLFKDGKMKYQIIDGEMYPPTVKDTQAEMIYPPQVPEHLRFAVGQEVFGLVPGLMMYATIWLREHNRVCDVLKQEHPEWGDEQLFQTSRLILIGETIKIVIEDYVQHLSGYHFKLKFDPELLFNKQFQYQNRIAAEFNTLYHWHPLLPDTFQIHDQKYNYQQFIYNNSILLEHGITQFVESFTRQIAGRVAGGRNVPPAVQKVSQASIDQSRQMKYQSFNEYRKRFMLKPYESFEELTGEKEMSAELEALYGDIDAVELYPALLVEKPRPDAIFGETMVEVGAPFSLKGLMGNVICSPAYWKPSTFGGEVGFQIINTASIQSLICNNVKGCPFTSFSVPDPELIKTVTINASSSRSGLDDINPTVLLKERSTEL
Protocol: as §1, §2

[4] = molecular target: T4, 15-LOX (Glycine max, UniProt P08170); experiment: Lipoxygenase (15-LOX) inhibition assay (Cayman LOX inhibitor screening kit); format: biochemical, soybean; conditions: mean ± SD of three experiments
T4 construct: purchased Cayman Chemical 760700
T4 sequence (P08170 1-839): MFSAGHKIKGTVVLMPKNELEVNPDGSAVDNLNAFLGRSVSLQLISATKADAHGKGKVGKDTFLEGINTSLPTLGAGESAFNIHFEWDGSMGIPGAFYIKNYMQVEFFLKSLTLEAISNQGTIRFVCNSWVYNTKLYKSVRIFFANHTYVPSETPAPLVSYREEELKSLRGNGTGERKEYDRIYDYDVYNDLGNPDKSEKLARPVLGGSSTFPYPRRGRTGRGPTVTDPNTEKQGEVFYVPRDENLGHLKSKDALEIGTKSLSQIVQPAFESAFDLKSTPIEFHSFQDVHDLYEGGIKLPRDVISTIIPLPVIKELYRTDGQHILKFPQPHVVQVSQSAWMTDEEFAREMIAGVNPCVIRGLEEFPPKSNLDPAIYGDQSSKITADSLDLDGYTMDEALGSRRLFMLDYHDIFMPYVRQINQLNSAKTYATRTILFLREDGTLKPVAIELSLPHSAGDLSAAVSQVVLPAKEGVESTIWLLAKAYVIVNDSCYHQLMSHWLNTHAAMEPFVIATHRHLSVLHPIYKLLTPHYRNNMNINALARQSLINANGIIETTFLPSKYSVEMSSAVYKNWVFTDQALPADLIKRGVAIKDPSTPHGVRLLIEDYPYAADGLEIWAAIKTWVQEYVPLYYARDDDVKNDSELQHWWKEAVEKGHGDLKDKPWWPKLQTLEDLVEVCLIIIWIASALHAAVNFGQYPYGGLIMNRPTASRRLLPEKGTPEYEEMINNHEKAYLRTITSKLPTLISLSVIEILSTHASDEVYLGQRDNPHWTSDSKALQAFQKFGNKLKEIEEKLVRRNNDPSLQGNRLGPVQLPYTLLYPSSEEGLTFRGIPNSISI
Protocol: Briefly, in a 96-well plate, 10 µl of each test compound (dissolved in DMSO) or vehicle were pre-incubated with 90 µl of 15-LOX enzyme. The reaction was started by addition of 10 µl of substrate (AA) and the plate was shaken for at least 5 min. Then, 100 µl of chromogen supplied with the kit was added to each well to stop the enzymatic reaction and develop the colour. The absorbance was measured at 490 nm using microplate reader.
Therefore, the soybean LOX is most like the mammalian 15-LOX[59].

T1 sequence (P01375 77-233 limits assumed): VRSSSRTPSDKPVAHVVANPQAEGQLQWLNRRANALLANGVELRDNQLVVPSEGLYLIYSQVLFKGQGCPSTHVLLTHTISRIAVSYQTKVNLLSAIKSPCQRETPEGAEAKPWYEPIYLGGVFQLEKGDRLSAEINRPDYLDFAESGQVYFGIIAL

| Compound | IC50 [1] | IC50 [2] | melting point | IC50 [3] | Selectivity indexes (SI) [3] | COX-2 inhibition, in words (SAR discussion) [3] | IC50 [4] | TNF-α inhibition, in words (discussion) ([1]; qualitative statement) |
| --- | --- | --- | --- | --- | --- | --- | --- | --- |
| NNC(=O)C(=Cc1ccccc1[N+](=O)[O-])CC(=O)c1ccc(Cl)c(Cl)c1 [Compound 6a, 4-(3,4-Dichlorophenyl)-2-(2-nitrobenzylidene)-4-oxo-butanehydrazide] | 0.00587 ± 0.00012 µM | 9.67 ± 0.06 µM | 164 to 166 °C | 0.09 µM | 107.44 | high activity | 2.83 ± 0.06 µM | – |
| NNC(=O)C(=Cc1cccc([N+](=O)[O-])c1)CC(=O)c1ccc(Cl)c(Cl)c1 [Compound 6b, 4-(3,4-Dichlorophenyl)-2-(3-nitrobenzylidene)-4-oxo-butanehydrazide] | 0.0041 ± 0.0001 µM | 10.1 ± 0.15 µM | 160 to 162 °C | 0.08 µM | 125.88 | high activity | 2.47 ± 0.06 µM | – |
| CN(C)c1ccc(C=C(CC(=O)c2ccc(Cl)c(Cl)c2)C(=O)NN)cc1 [Compound 6c, 4-(3,4-Dichlorophenyl)-2-(4-dimethylaminobenzylidene)-4-oxo-butanehydrazide] | 0.00617 ± 6e-05 µM | 8.83 ± 0.06 µM | 154 to 156 °C | 0.1 ± 0.01 µM | 88.30 | – | 3.17 ± 0.06 µM | – |
| O=C1NN(C(=O)c2ccccc2)C(c2ccc(Cl)c(Cl)c2)=CC1=Cc1ccccc1[N+](=O)[O-] [Compound 8a, 2-Benzoyl-5-(2-nitrobenzylidene)-3-(3,4-dichlorophenyl)-1H-pyridazin-6-one] | 0.00383 ± 0.00144 µM | 10.8 ± 0.15 µM | 222 to 224 °C | 0.07 µM | 153.86 | – | 2.33 ± 0.51 µM | – |
| O=C1NN(C(=O)c2ccccc2)C(c2ccc(Cl)c(Cl)c2)=CC1=Cc1cccc([N+](=O)[O-])c1 [Compound 8b, 2-Benzoyl-5-(3-nitrobenzylidene)-3-(3,4-dichlorophenyl)-1H-pyridazin-6-one] | 0.00347 ± 6e-05 µM | 12.67 ± 0.12 µM | 150 to 152 °C | 0.04 µM | 316.75 | – | 2.47 ± 0.06 µM | – |
| CN(C)c1ccc(C=C2C=C(c3ccc(Cl)c(Cl)c3)N(C(=O)c3ccccc3)NC2=O)cc1 [Compound 8c, 2-Benzoyl-5-(4-dimethylaminobenzylidene)-3-(3,4-dichlorophenyl)-1H-pyridazin-6-one] | 0.0029 ± 0.0001 µM | 13.07 ± 0.12 µM | 229 to 231 °C | 0.04 µM | 326.75 | – | 3.17 ± 0.06 µM | lowest IC50 value |

Second part, the compound after the results:

| IC50 [1] | IC50 [2] | melting point | IC50 [3] | Selectivity indexes (SI) [3] | COX-2 inhibition, in words (SAR discussion) [3] | IC50 [4] | TNF-α inhibition, in words (discussion) ([1]; qualitative statement) | Compound |
| --- | --- | --- | --- | --- | --- | --- | --- | --- |
| 0.00557 ± 6e-05 µM | 9.43 ± 0.12 µM | 214 to 216 °C | 0.28 ± 0.01 µM | 33.68 | – | 2.07 ± 0.15 µM | – | O=C(CC(=Cc1ccccc1[N+](=O)[O-])c1n[nH]c(=S)o1)c1ccc(Cl)c(Cl)c1 [Compound 9a, 1-(3,4-Dichlorophenyl)-4-(2-nitrophenyl)-3-(2-thioxo-4,5-dihydro-1,3,4-oxadiazol-5-yl)but-3-en-1-one] |
| 0.00627 ± 0.00015 µM | 8.93 ± 0.06 µM | 162 to 164 °C | 0.22 ± 0.01 µM | 40.59 | – | 2 ± 0.17 µM | – | CN(C)c1ccc(C=C(CC(=O)c2ccc(Cl)c(Cl)c2)c2n[nH]c(=S)o2)cc1 [Compound 9c, 1-(3,4-Dichlorophenyl)-4-(4-dimethylaminophenyl)-3-(2-thioxo-4,5-dihydro-1,3,4-oxadiazol-5-yl)but-3-en-1-one] |

Reference: publication PMC8118430, “Utility of novel 2-furanones in synthesis of other heterocyclic compounds having anti-inflammatory activity with dual COX2/LOX inhibition” (Journal of Enzyme Inhibition and Medicinal Chemistry, 2021)
